Reference: patent publication US12606528B2, “Methods and materials for inhibiting NF-kB activity” (University of Pittsburgh - Of the Commonwealth System of …, priority 2019, dated 2026)
Like-named read-outs stand apart in the source and are kept apart here.

What was measured:
NF-κB = NF-κB assay: THP1-NF-κB-LUC cells, LPS-stimulated secreted luciferase; format: cell-based; settings: read-out: IC50 (NF-κB assay)
How it was run: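 THP1-NF-κB-LUC cells (25k/well) were pretreated with compounds for 2 h, then stimulated with LPS (10 ng/mL) for 18 h. Secreted luciferase was measured and normalized to vehicle, and IC50 was fitted from the concentration series.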

TNF release = experiment: TNF assay: TNF release from LPS-stimulated human PBMCs (TNF ELISA); format: cell-based; settings: PBMC, read-out: IC50 (TNF assay)
Description: 25k THP1-NF-κB-LUC cells were dispensed into 384 well plate (per well). Cells were treated with compounds with various concentrations for 2 hours before addition of LPS (10 ng/mL) for 18 hours. Secreted luciferase activity were measured using quant-luc reagents (1 bag of luc reagent dilute to 40 mL, use 10 μL per well). Data were normalized to vehicle control and graphed. Compound IC50 towards inhibiting NF-κB were determined through Prism. Similarly, 10k human PBMCs cells were cultured in 384 well plate (per well). Cells were treated with compounds with various concentrations for 2 hours before addition of LPS (10 ng/ml) for 18 hours, and supernatants were collected and assayed for TNF ELISA. Compound IC50 towards inhibiting TNF release were determined through Prism. • Activity: “+”>10 μM, “++”>1 μM and <10 μM, “+++”>0.1 μM and <1 μM, “++++”<0.1 μM.

[1] = THP1-NF-κB-LUC cells, LPS-stimulated
[2] = LPS-stimulated human PBMCs, TNF ELISA
[3] = THP1-NF-κB-LUC cells, compounds 2 hours before LPS (10 ng/mL) for 18 hours, secreted luciferase
[4] = human PBMCs, compounds 2 hours before LPS (10 ng/ml) for 18 hours, supernatant TNF ELISA

Compound | IC50 (NF-κB; [1]) | IC50 (TNF release; [2]) | IC50 (NF-κB; [3]) | IC50 (TNF release; [4]) | further results
O=c1c(S(=O)(=O)c2ccc(F)c(F)c2)c[nH]c2cccnc12 [BC19121] |  |  | > 10 µM | > 10 µM | 
O=c1c(S(=O)(=O)c2ccc(F)c(F)c2)c[nH]c2ccc(Cl)nc12 [BC19122] |  |  | > 10 µM | > 10 µM | 
O=c1c(S(=O)(=O)c2ccc(F)cc2)c[nH]c2ccncc12 [BC19123] |  |  | 1 to 10 µM | > 10 µM | 
O=c1c(S(=O)(=O)c2ccc(F)cc2)c[nH]c2cccnc12 [BC19124] |  |  | > 10 µM | > 10 µM | 
CCS(=O)(=O)c1oc(-c2ccc(C)cc2)nc1S(=O)(=O)c1ccc(F)cc1 [BC19125] | < 0.1 µM | < 0.1 µM |  |  | 
Cc1ccc(-c2nc(S(=O)(=O)c3ccc(Cl)cc3)c(S(C)(=O)=O)o2)cc1 [BC19126] | 1 to 10 µM | 0.1 to 1 µM |  |  | 
CCS(=O)(=O)c1oc(-c2ccc(C)cc2)nc1S(=O)(=O)c1ccc(Cl)cc1 [BC19127] | < 0.1 µM | 1 to 10 µM |  |  | 
Cc1ccc(-c2nc(S(=O)(=O)c3ccc(Br)cc3)c(S(C)(=O)=O)o2)cc1 [BC19128] | 1 to 10 µM | 0.1 to 1 µM |  |  | 
CCS(=O)(=O)c1oc(-c2ccc(C)cc2)nc1S(=O)(=O)c1ccc(Br)cc1 [BC19129] | < 0.1 µM | 0.1 to 1 µM |  |  | 
CCCS(=O)(=O)c1oc(-c2ccc(C)cc2)nc1S(=O)(=O)c1ccc(Br)cc1 [BC19130] | 0.1 to 1 µM | 0.1 to 1 µM |  |  | 
O=C1COc2cc(S(=O)(=O)Nc3ccc(Cl)cc3)c(Cl)cc2N1 [BC19133] |  |  | < 0.1 µM | > 10 µM | 
CCOc1ccc(NS(=O)(=O)c2cc3c(cc2Br)NC(=O)CO3)cc1 [BC19135] |  |  | > 10 µM | > 10 µM | 
CC(C)c1ccc(NS(=O)(=O)c2cc3c(cc2Cl)NC(=O)CO3)cc1 [BC19136] |  |  | > 10 µM | > 10 µM | 
COc1ccc(NS(=O)(=O)c2cc3c(cc2Br)NC(=O)CO3)cc1 [BC19137] |  |  | 0.1 to 1 µM | > 10 µM | 
CCc1ccc(NS(=O)(=O)c2cc3c(cc2Br)NC(=O)CO3)cc1 [BC19138] |  |  | < 0.1 µM | > 10 µM | 
Cc1cnc(-c2ccc3nc(-c4ccc(F)cc4)c(-c4ccc(F)cc4)nc3c2)o1 [BC19140] | 1 to 10 µM | > 10 µM |  |  | 
Cc1nnc(-c2ccc3nc(-c4ccc(F)cc4)c(-c4ccc(F)cc4)nc3c2)o1 [BC19141] | 0.1 to 1 µM | > 10 µM |  |  | 
Fc1ccc(-c2nc3ccc(-c4nnc[nH]4)cc3nc2-c2ccc(F)cc2)cc1 [BC19143] | 0.1 to 1 µM | > 10 µM |  |  | 
Fc1ccc(-c2nc3ccc(-c4nnn[nH]4)cc3nc2-c2ccc(F)cc2)cc1 [BC19144] | 1 to 10 µM | > 10 µM |  |  | 
Fc1ccc(-c2nc3ccc(-c4ncco4)cc3nc2-c2ccc(F)cc2)cc1 [BC19145] | 1 to 10 µM | > 10 µM |  |  | 

Compound | IC50 (NF-κB; [1]) | IC50 (TNF release; [2]) | IC50 (NF-κB; [3]) | IC50 (TNF release; [4]) | further results
Cc1ccc(-c2nc(S(=O)(=O)c3ccc(C)cc3)c(S(=O)(=O)C(C)C)o2)cc1 [BC19146] | < 0.1 µM | 0.1 to 1 µM |  |  | 
Cc1ccc(-c2nc(S(=O)(=O)c3ccc(F)cc3)c(S(C)(=O)=O)o2)cc1 [BC19147] | 0.1 to 1 µM | 0.1 to 1 µM |  |  | 
Cn1cc(-c2ccc3nc(-c4ccc(F)cc4)c(-c4ccc(F)cc4)nc3c2)nn1 [BC19148] | < 0.1 µM | > 10 µM |  |  | 
Fc1ccc(-c2nc3ccc(-c4c[nH]nn4)cc3nc2-c2ccc(F)cc2)cc1 [BC19150] | 0.1 to 1 µM | 1 to 10 µM |  |  | 
O=C(O)c1ccc2nc(-c3ccc(F)cc3)c(-c3cccs3)nc2c1 [BC19156] |  |  |  |  | IC50 (NF-κB): 1 to 10 µM; IC50 (TNF release; Homo sapiens): > 10 µM
O=c1c(S(=O)(=O)c2ccc(F)cc2)c[nH]c2ccc(Cl)cc12 [BC19160] |  |  | > 10 µM | > 10 µM | 
O=C1COc2cc(S(=O)(=O)Nc3ccccc3)c(Cl)cc2N1 [BC19161] |  |  | 1 to 10 µM | > 10 µM | 
Cc1ccc(Cl)cc1NS(=O)(=O)c1cc2c(cc1Cl)NC(=O)CO2 [BC19162] |  |  | > 10 µM | > 10 µM | 
COc1ccc(NS(=O)(=O)c2cc3c(cc2Br)NC(=O)CO3)cc1Cl [BC19163] |  |  | > 10 µM | > 10 µM | 
O=C1COc2cc(S(=O)(=O)Nc3ccc(OC(F)(F)F)cc3)c(Cl)cc2N1 [BC19164] |  |  | < 0.1 µM | > 10 µM | 
Cc1ccc(NS(=O)(=O)c2cc3c(cc2Cl)NC(=O)CO3)cc1Cl [BC19165] |  |  | 0.1 to 1 µM | > 10 µM | 
O=C1COc2cc(S(=O)(=O)Nc3ccc(F)cc3F)c(Br)cc2N1 [BC19166] |  |  | < 0.1 µM | > 10 µM | 
CCc1cccc(NS(=O)(=O)c2cc3c(cc2Br)NC(=O)CO3)c1 [BC19167] |  |  | 0.1 to 1 µM | > 10 µM | 
O=C1COc2c(cc(Cl)cc2S(=O)(=O)Nc2ccccc2)N1 [BC19168] |  |  | < 0.1 µM | > 10 µM | 
O=C1COc2c(cc(Cl)cc2S(=O)(=O)Nc2ccc(Cl)cc2)N1 [BC19169] |  |  | < 0.1 µM | > 10 µM | 
Cc1ccc(Cl)cc1NS(=O)(=O)c1cc(Cl)cc2c1OCC(=O)N2 [BC19170] |  |  | 1 to 10 µM | > 10 µM | 
COc1ccc(NS(=O)(=O)c2cc(Br)cc3c2OCC(=O)N3)cc1Cl [BC19171] |  |  | < 0.1 µM | > 10 µM | 
O=C1COc2c(cc(Cl)cc2S(=O)(=O)Nc2ccc(OC(F)(F)F)cc2)N1 [BC19172] |  |  | < 0.1 µM | > 10 µM | 
CCOc1ccc(NS(=O)(=O)c2cc(Br)cc3c2OCC(=O)N3)cc1 [BC19173] |  |  | < 0.1 µM | > 10 µM | 

More lines, main results first:

IC50 (NF-κB; [1]) | IC50 (TNF release; [2]) | IC50 (NF-κB; [3]) | IC50 (TNF release; [4]) | Compound | further results
> 10 µM | > 10 µM |  |  | CN1CCN(C(=O)c2ccc3nc(C(F)(F)F)c(-c4cccnc4)nc3c2)CC1 [BC19105] | 
> 10 µM | > 10 µM |  |  | CN1CCN(C(=O)c2ccc3nc(C(F)(F)F)c(-c4ccccc4F)nc3c2)CC1 [BC19106] | 
> 10 µM | > 10 µM |  |  | CN1CCN(C(=O)c2ccc3nc(C(F)(F)F)c(-c4ccc(F)cc4F)nc3c2)CC1 [BC19107] | 
> 10 µM | > 10 µM |  |  | CN1CCN(C(=O)c2ccc3nc(C(F)(F)F)c(-c4cc(F)cc(F)c4)nc3c2)CC1 [BC19108] | 
0.1 to 1 µM | > 10 µM |  |  | CN1CCN(C(=O)c2ccc3nc(-c4cccs4)c(-c4ccc(F)cc4)nc3c2)CC1 [BC19109] | 
> 10 µM | > 10 µM |  |  | CN1CCN(C(=O)c2ccc3nc(-c4ccc(F)cc4)c(C(F)(F)F)nc3c2)CC1 [BC19110] | 
> 10 µM | > 10 µM |  |  | Fc1ccc(-c2nc3cc(-c4nnc[nH]4)ccc3nc2C(F)(F)F)cc1 [BC19111] | 
> 10 µM | > 10 µM |  |  | Cn1nnnc1-c1ccc2nc(C(F)(F)F)c(-c3ccc(F)cc3)nc2c1 [BC19112] | 
> 10 µM | > 10 µM |  |  | Fc1ccc(-c2nc3cc(-c4nnn[nH]4)ccc3nc2C(F)(F)F)cc1 [BC19113] | 
> 10 µM | > 10 µM |  |  | Cc1cnc(-c2ccc3nc(C(F)(F)F)c(-c4ccc(F)cc4)nc3c2)o1 [BC19114] | 
> 10 µM | > 10 µM |  |  | Fc1ccc(-c2nc3cc(-c4ncco4)ccc3nc2C(F)(F)F)cc1 [BC19115] | 
> 10 µM | > 10 µM |  |  | Fc1ccc(-c2nc3cc(-c4nnco4)ccc3nc2C(F)(F)F)cc1 [BC19116] | 
> 10 µM | > 10 µM |  |  | NC(=O)c1ccc2nc(-c3ccc(F)cc3)c(C(F)(F)F)nc2c1 [BC19117] | 
1 to 10 µM | > 10 µM |  |  | O=C(O)c1ccc2nc(-c3ccc(F)cc3)c(-c3ccc(F)cc3)nc2c1 [BC19118] | 
< 0.1 µM | < 0.1 µM |  |  | CNC(=O)c1ccc2nc(-c3cccs3)c(-c3ccc(F)cc3)nc2c1 [BC19119] | 
< 0.1 µM | < 0.1 µM |  |  | C#CCNC(=O)c1ccc2nc(-c3cccs3)c(-c3ccc(F)cc3)nc2c1 [BC19120] | 
< 0.1 µM | > 10 µM |  |  | Cn1nnnc1-c1ccc2nc(-c3ccc(F)cc3)c(-c3ccc(F)cc3)nc2c1 [BC19139] | 
> 10 µM | > 10 µM |  |  | CN1CCN(C(=O)c2ccc3nc(C(F)(F)F)c(-c4cccc(F)c4)nc3c2)CC1 [BC19142] | 
> 10 µM | > 10 µM |  |  | CN1CCN(C(=O)c2ccc3nc(C(F)(F)F)c(-c4ccncc4)nc3c2)CC1 [BC19149] | 
> 10 µM | > 10 µM |  |  | Cc1nnc(-c2ccc3nc(C(F)(F)F)c(-c4ccc(F)cc4)nc3c2)o1 [BC19151] | 
> 10 µM | > 10 µM |  |  | Cn1nnnc1-c1ccc2nc(-c3ccc(F)cc3)c(C(F)(F)F)nc2c1 [BC19152] | 
> 10 µM | > 10 µM |  |  | Fc1ccc(-c2nc3ccc(-c4nnn[nH]4)cc3nc2C(F)(F)F)cc1 [BC19153] | 
< 0.1 µM | > 10 µM |  |  | C#CCNC(=O)c1ccc2nc(-c3ccc(F)cc3)c(-c3ccc(F)cc3)nc2c1 [BC19154] | 
0.1 to 1 µM | 1 to 10 µM |  |  | NC(=O)c1ccc2nc(-c3cccs3)c(-c3ccc(F)cc3)nc2c1 [BC19155] | 
> 10 µM | > 10 µM |  |  | N#Cc1ccc2nc(-c3cccs3)c(-c3ccc(F)cc3)nc2c1 [BC19157] | 
> 10 µM | > 10 µM |  |  | N#Cc1ccc2nc(-c3ccc(F)cc3)c(C(F)(F)F)nc2c1 [BC19158] | 
> 10 µM | > 10 µM |  |  | Fc1ccc(-c2nc3ccc(-c4nnc[nH]4)cc3nc2C(F)(F)F)cc1 [BC19159] | 
